In paper PMC4035770 (Pharmaceuticals, 2014):
pIC50, pKi: −log10 of the molar value. Where a name gives a salt, the structure may show the parent alone.

Legend:
[1] = Aqueous pH stability profile at 40 °C
[2] = molecular target: T1, Norepinephrine transporter (NET) (Homo sapiens, UniProt P23975); assay: Pharmacological screen, norepinephrine transporter; assay type: binding; conditions: NET
T1 construct: MDS Pharma Services Taiwan

[3] = cited from earlier work
[4] = molecular target: Nicotinic acetylcholine; assay: Pharmacological screen, nicotinic acetylcholine receptor binding; conditions: Nicotinic acetylcholine
Method: 2.4. Plasma LLOQ/Precision […]
of 10 ng/mL. […] ACN (200 µL) […]
was added and the solution was vortex mixed. The remaining mixture was centrifuged at 10,000 rpm […]
The final concentration was 1 ng/mL. […]
signal to noise ratio of three.
2.6. Brain LLOQ Accuracy/Precision
Aliquots (5 × 200 µL) were […]
transferred to 1.5 mL microcentrifuge tubes.
ACN (300 µL) was added and […]
the solution was vortex mixed. […] 200 µL
The solution was vortex mixed again and analysed by HPLC. Final concentrations were 12.5, 125 ng/mL.
2.7. Pharmacological Screening of N-Methyl Bupropion and Bupropion […]
nicotinic acetylcholine receptor [5,6] and SERT [7,8]. The specific nicotinic acetylcholine assays are […]
and nicotinic acetylcholine α7 [12].
3. Results Method Validation […]
diluent solutions separately.

[5] = set-up: method as in earlier work; conditions: plasma samples; cited from earlier work
[6] = molecular target: Muscarinic non -selective, central; assay: Pharmacological screen, muscarinic receptor binding
[7] = Microsomal metabolic stability screen, pooled human liver microsomes (HLM); assay type: in vitro ADME; conditions: 10 µM prodrug, 0.1 mg/mL HLM, NADPH regenerating system, 37 °C, 60 min, n = 2; LOD 0.1 ng/mL
Method: Human liver microsome (HLM) stock solution preparation. HLM (0.5 mL) stock was added to PBS solution (9.5 mL). Final concentration; 1 mg/mL. The PBS solution was prepared by addition of one USP PBS tablet (Sigma-Aldrich catalogue number P4417) dissolved in 200 mL deionised water.
(§1) Microsomes, NADPH regenerating solutions A and B were thawed rapidly to 37 °C, then kept on wet ice until ready for use. A stock solution of the prodrug (5 mM) was prepared in ACN. To a 1.7 mL microcentrifuge tube in a 37 °C water bath was added the phosphate buffered saline solution (349 µL), the NADPH regenerating solution A (50 µL), the NADPH regenerating solution B (50 µL), and the prodrug solution (1 µL). After incubation for 5 min, microsome solution (50 µL) was added and the metabolism was initiated. The tube was vortex mixed. The final concentrations in this solution was 10 µM prodrug, 0.1 mg/mL HLM or 0.02 mg/mL HIM, 1.3 mM NADP^+, 0.4 U/mL glucose-6-phosphate dehydrogenase and 0.2% organic solvent. This solution was incubated for 60 min at 37 °C. The reaction was quenched by addition of acetonitrile (500 µL). The mixture was centrifuged at 10,000 × g for 10 min. The supernatant was analyzed by LC-MS analysis.
After passing through the intestinal membrane into the portal circulation the prodrug quickly enters the liver. This metabolic condition was simulated in the present work by using pooled human liver microsomes (HLM).

[8] = Screening incubation in USP simulated intestinal fluid (SIF); conditions: incubation 37 °C, one hour, n = 2; <LOD = bupropion, its metabolites or other prodrugs not detected; LOD 0.1 ng/mL
Method: USP simulated intestinal fluid preparation. Monobasic potassium phosphate (0.068 g) was dissolved in 2.5 mL of water and mixed. Sodium hydroxide (0.77 mL of 0.2 M) and water (5.0 mL) were added. Pancreatin (0.1 g) was added and the pH adjusted with either 0.2 M sodium hydroxide or 0.2 M hydrochloric acid to a pH of 6.8 ± 0.1. The solution was diluted to 10 mL with water.
(§2) Pepsin is most efficient at cleaving peptide bonds between hydrophobic and aromatic amino acids such as phenylalanine, tryptophan and tyrosine. In order to simulate the pH and digestive enzymes of the stomach, USP simulated gastric fluid (SGF) was used. Conditions in the intestine were simulated using USP simulated intestinal fluid (SIF).
(§3) One hour metabolism or hydrolysis was considered to be sufficient time to generate detectable levels of metabolites, bearing in mind the likely exposure time in vivo. A blank media was used in each analysis to subtract a background from each LC-MS sample chromatogram. A t0 sample was also used to identify impurities related to each prodrug.
(§4) After one hour incubation of each compound in the selected media, the mixture was quenched with acetonitrile and the sample was centrifuged to remove precipitated proteins. The supernatant solution was analyzed immediately by LC-MS using data dependent acquisition analysis.
(§5) This transformation is commonly used to assess activity of oxidative enzyme CYP2B6 in human liver and intestinal microsomes. […] It was important to report if any of the other prodrugs were detected if for instance a possible multistep-prodrug was found.

[9] = Screening incubation in pooled human plasma (PHP); assay type: in vitro ADME; conditions: incubation 37 °C, one hour, n = 2; <LOD = bupropion, its metabolites or other prodrugs not detected; LOD 0.1 ng/mL
Description: Pooled human plasma solution preparation. Citrated human plasma was pooled together from three separate donors.
Finally, pooled human plasma (PHP) was used to evaluate the prodrug stability/activation in blood since the plasma fraction contains much of the hydrolase activity in blood.

[10] = Screening incubation in USP simulated gastric fluid (SGF); conditions: incubation 37 °C, one hour, n = 2; <LOD = bupropion, its metabolites or other prodrugs not detected; LOD 0.1 ng/mL
Method: USP simulated gastric fluid preparation. Sodium chloride (0.02 g) and purified pepsin (0.032 g) that is derived from porcine stomach mucosa with an activity of 800 to 2,500 units per mg of protein were dissolved in 0.07 mL of concentrated hydrochloric acid and sufficient water to make 10 mL.
as §2, §3, §4, §5

[11] = Michaelis-Menten kinetics of bupropion formation in pooled human liver microsomes; assay type: in vitro ADME; set-up: intrinsic hepatic clearance (Cli, h): unit not given here
Method: Microsomes, NADPH regenerating solutions A and B were thawed rapidly to 37 °C, and then kept on ice until ready for use. Substrate solutions were prepared (1–500 µM) where the maximum concentration of DMSO was 1%, and the concentration of microsomes, NADPH regenerating solution B and phosphate buffer was fixed. After incubation for 5 min, NADPH regenerating solution A was added and the metabolism was initiated. Final volume was 100 μL. The tube was inverted twice and vortex mixed. The final concentrations of prodrug in this solution was 1–500 µM, HLM (0.1 mg/mL) or HIM (0.02 mg/mL), NADP^+ (1.3 mM), glucose-6-phosphate dehydrogenase (0.4 U/mL) and 1.0% DMSO. This solution was incubated for 20 min at 37 °C. The reaction was quenched by addition of 100 µL of acetonitrile. The mixture was centrifuged at 10,000 × g for 10 min. The supernatant was analyzed by LC-MS analysis.

[12] = Microsomal metabolic stability screen, pooled human intestinal microsomes (HIM); assay type: in vitro ADME; conditions: 10 µM prodrug, 0.02 mg/mL HIM, NADPH regenerating system, 37 °C, 60 min, n = 2; LOD 0.1 ng/mL
Method: Human intestinal microsome (HIM) stock solution preparation. HIM (0.2 mL) stock was added to PBS solution (9.8 mL). Final concentration; 0.2 mg/mL.
as §1
The intestinal cells contain cytochome P450 enzymes, flavin monoxygenases, esterases and UDP glucuroyl transferases. Condition III involved the use of pooled human intestinal microsomes (HIM) in order to simulate the potential metabolism that occurs during absorption and passage through the intestinal wall.

[13] = In vitro metabolic screen in the five media (SGF, SIF, HIM, HLM, PHP), overall statement; assay type: in vitro ADME; conditions: 37 °C, one hour, statement in words
Description: A summary of the oral prodrug candidate matrix we developed is illustrated in Figure 2. It contained six main conditions and can be applied to the development of any drug candidate. The work plan starts out with a concept molecule which in this case was bupropion. At this stage prodrug candidates are identified and the literature is searched for transformations that have been reported and methods used to carry out these transformations. […] After synthesis and purification of each potential prodrug, full spectroscopic characterization was performed. Each prodrug was screened in the metabolic media to assess its stability. Potential prodrug candidates were then selected for further in vitro enzyme kinetic and hydrolysis studies to evaluate the most likely prodrug for further in vivo assessment.
The five media (SGF, SIF, HIM, HLM and PHP) best represent the transit a drug or prodrug would take if delivered by the oral route of administration.

T1 sequence (P23975 whole entry): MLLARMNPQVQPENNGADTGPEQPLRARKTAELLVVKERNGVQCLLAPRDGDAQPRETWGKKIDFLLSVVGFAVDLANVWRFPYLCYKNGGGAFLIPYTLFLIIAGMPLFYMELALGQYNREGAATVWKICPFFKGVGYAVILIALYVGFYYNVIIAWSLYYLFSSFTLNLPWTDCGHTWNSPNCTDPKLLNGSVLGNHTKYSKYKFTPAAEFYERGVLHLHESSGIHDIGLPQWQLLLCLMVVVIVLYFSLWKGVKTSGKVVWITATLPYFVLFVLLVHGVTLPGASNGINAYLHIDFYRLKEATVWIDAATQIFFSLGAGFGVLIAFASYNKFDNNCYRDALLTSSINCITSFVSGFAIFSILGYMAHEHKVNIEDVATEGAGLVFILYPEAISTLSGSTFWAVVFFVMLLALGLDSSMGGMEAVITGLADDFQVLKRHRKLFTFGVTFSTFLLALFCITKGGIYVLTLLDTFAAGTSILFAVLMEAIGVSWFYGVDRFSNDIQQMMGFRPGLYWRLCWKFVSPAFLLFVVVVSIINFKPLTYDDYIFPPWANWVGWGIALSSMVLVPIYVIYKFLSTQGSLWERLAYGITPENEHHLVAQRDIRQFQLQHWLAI

SMILES | Primary product detected in media HLM [7] | Primary product detected in media SIF [8] | Primary product detected in media PHP [9] | Primary product detected in media SGF [10] | Primary product detected in media HIM [12] | Product / activation to bupropion or its metabolites on screening in the metabolic media [13] | also measured
CC(NC(C)(C)C)C(=O)c1cccc(Cl)c1 (racemic) [Bupropion, Rac-bupropion hydrochloride, reference compound] |  |  |  |  |  |  | aqueous degradation rate above pH 12 ([1]; above pH 12): rate of degradation increases significantly; aqueous stability / degradation rate below pH 5 ([1]; below pH 5): stable; nH (Hill coefficient) [2]: 0.835; aqueous stability profile above pH 5 [3]: poor stability profile; pIC50 [4]: < 4.00; sample stability in plasma (pH) [5]: stable at low pH; pIC50 [6]: 4.06; pKi ([6]; Cheng and Prusoff): 4.57
CC(C(=O)c1cccc(Cl)c1)N(Cc1ccccc1)C(C)(C)C (racemic) [Compound 5, Rac-N-benzyl bupropion] | The major product was bupropion | <LOD | <LOD | <LOD | The major product was bupropion |  | intrinsic hepatic clearance (Cli, h) ([11]; from HLM Michaelis-Menten parameters): 87; Vmax of bupropion formation ([11]; pooled HLM 0.1 mg/mL, substrate 1–500 µM, 20 min, 37 °C, n = 6): 1323 ± 42.2 pmol/min/mg HLM
CC1C(c2cccc(Cl)c2)=NOCN1C(C)(C)C (racemic) [Compound 10, Rac-oxadiazine of bupropion] |  | <LOD | <LOD | <LOD |  |  | 
CC1C(c2cccc(Cl)c2)=NOC(=O)N1C(C)(C)C (racemic) [Compound 11, Rac-oxadiazinone of bupropion] | <LOD | <LOD | <LOD | <LOD | <LOD | resistant to all of the screening conditions | 
CO/C(=C(/C)N(C)C(C)(C)C)c1cccc(Cl)c1 [Compound 6, E/Z-N,O-dimethylated bupropion] |  | <LOD | <LOD | <LOD |  | N-methylbupropion (4) | 
CO/C(=C(/C)N(Cc1ccccc1)C(C)(C)C)c1cccc(Cl)c1 [Compound 7, (E/Z)-O-methyl N-benzyl bupropion] | O-demethylated to N-benzylbupropion (5) | <LOD | <LOD | <LOD | O-demethylated to N-benzylbupropion (5) |  | 
CC(=O)O/C(=C(/C)N(C(C)=O)C(C)(C)C)c1cccc(Cl)c1 [Compound 8, (E/Z)-N,O-diacetylated bupropion] | <LOD | <LOD | <LOD | <LOD | <LOD | did not result in any activation back to bupropion or its metabolites | 
CC(NC(C)(C)C)/C(=N/O)c1cccc(Cl)c1 (stereo not drawn) [Compound 9, syn- and anti-bupropion hydroxyimine] | <LOD | <LOD | <LOD | <LOD | <LOD | neither bupropion nor any of its metabolites were detected | stability / hydrolysis in simulated gastric fluid (SGF pH 1.2, 37 °C): none was detected; stability at physiological pH (phosphate buffered saline pH 7.4, 37 °C): much greater stability than bupropion
Cc1c(-c2cccc(Cl)c2)oc(=O)n1C(C)(C)C [Compound 12, oxazolone of bupropion] | <LOD | <LOD | <LOD | <LOD | <LOD | no bupropion or metabolites thereof detected | 
